Source: PubChem BioAssay (NCI)
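The compound was tested at five concentrations on cells cultured in 96-well plates, with a 48-hour exposure period. Abbreviation: GI50, concentration required for 50% inhibition of growth. The concentration for full growth arrest is given as TGI.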

Assays:
Assay in all cases: DTP human tumour cell line panel, 48 h
CCRF-CEM leukemia = system: CCRF-CEM leukemia
HCT-116 colon = system: HCT-116 colon
IGROV1 ovarian = system: IGROV1 ovarian
KM12 colon = system: KM12 colon
NCI-H460 lung = system: NCI-H460 lung
OVCAR-8 ovarian = system: OVCAR-8 ovarian
RPMI-8226 leukemia = system: RPMI-8226 leukemia
SF-295 CNS = system: SF-295 CNS
SK-MEL-28 melanoma = system: SK-MEL-28 melanoma
UACC-257 melanoma = system: UACC-257 melanoma

Structure (SMILES)	TGI (CCRF-CEM leukemia)	TGI (HCT-116 colon)	TGI (IGROV1 ovarian)	TGI (KM12 colon)	TGI (NCI-H460 lung)	TGI (OVCAR-8 ovarian)	TGI (RPMI-8226 leukemia)	TGI (SF-295 CNS)	TGI (SK-MEL-28 melanoma)	TGI (UACC-257 melanoma)	GI50 (IGROV1 ovarian)	GI50 (OVCAR-8 ovarian)	GI50 (SK-MEL-28 melanoma)	GI50 (UACC-257 melanoma)	GI50 (HCT-116 colon)	GI50 (KM12 colon)	GI50 (SF-295 CNS)
CN[C@@H]1[C@H](O)[C@H](NC)[C@H]2O[C@@]3(O)C(=O)C[C@@H](C)O[C@H]3O[C@@H]2[C@H]1O	> 100 µM	> 100 µM	> 100 µM	> 100 µM	> 100 µM	> 100 µM	> 100 µM	> 100 µM	> 100 µM	> 100 µM	–	–	–	–	–	–	–
CCCNCC(O)/C=C/[Si](C)(C)C (stereo unspecified) (tested in a mixture with another compound)	> 100 µM	> 100 µM	> 100 µM	> 100 µM	> 100 µM	> 100 µM	> 100 µM	> 100 µM	> 100 µM	> 100 µM	–	–	–	–	–	–	–
Cc1c2ccccc2nc2[nH]c3ccncc3c12	10.9 µM	–	> 100 µM	> 100 µM	39.8 µM	> 100 µM	77.7 µM	> 100 µM	> 100 µM	> 100 µM	–	–	–	–	–	–	–
C[n+]1ccccc1/C=C/c1ccc2c(c1)OCO2	> 10 µM	> 10 µM	> 10 µM	> 10 µM	> 10 µM	> 10 µM	> 10 µM	> 10 µM	> 10 µM	> 10 µM	–	–	–	–	–	–	–
CC1(C)[C@@H]2C[C@H]1C(Cc1ccccc1C[C@H]1c3cc(-c4ccccn4)ncc3[C@H]3C[C@@H]1C3(C)C)c1cc(-c3ccccn3)ncc12 (stereo partly specified)	0.899 µM	10.1 µM	26.2 µM	13.4 µM	> 31.9 µM	> 25.5 µM	3.33 µM	> 55.1 µM	> 100 µM	–	–	–	–	–	–	–	–
CCCCCCc1ccc(O)cc1O	> 100 µM	> 100 µM	> 93.8 µM	> 100 µM	> 100 µM	> 100 µM	> 77 µM	> 100 µM	> 100 µM	> 85.1 µM	–	–	–	–	–	–	–
Oc1ccc2ccccc2c1N=Nc1ccc(N=Nc2ccccc2)cc1	> 100 µM	> 100 µM	> 100 µM	> 100 µM	–	> 100 µM	> 100 µM	> 100 µM	> 100 µM	> 100 µM	–	–	–	–	–	–	–
O=S(=O)(O)c1cc(O)c2c(O)c(N=Nc3ccc(/C=C/c4ccc(N=Nc5c(S(=O)(=O)O)cc6cc(S(=O)(=O)O)cc(O)c6c5O)cc4S(=O)(=O)O)c(S(=O)(=O)O)c3)c(S(=O)(=O)O)cc2c1	> 100 µM	> 100 µM	> 100 µM	> 100 µM	> 100 µM	> 100 µM	> 100 µM	> 100 µM	> 100 µM	> 100 µM	–	–	–	–	–	–	–
CCOC(=O)C1=C(C)N(Cc2ccc(Cl)cc2Cl)C2(O)C(OC)CC(=O)C3C(=O)N(c4ccccc4)C(=O)C132 (stereo unspecified)	4.11 µM	4.12 µM	16.9 µM	9.03 µM	12.5 µM	6.19 µM	8.61 µM	20.2 µM	4.37 µM	18.2 µM	–	–	–	–	–	–	–
Cc1ccc(NCCN(C)CC(C)O)c2c(=O)c3ccc(Cl)cc3sc12 (stereo unspecified)	–	–	> 100 µM	–	–	> 100 µM	–	–	3.31 µM	3.57 µM	4.79 µM	7.16 µM	1.75 µM	1.96 µM	–	–	–
CN(C)CCNc1ccc2nnn3c4ccc(Cl)cc4c(=O)c1c23	> 52.8 µM	14.6 µM	38.7 µM	20.8 µM	14.8 µM	16.9 µM	25.4 µM	15.7 µM	18 µM	17.5 µM	–	–	–	–	–	–	–
COc1cc2c(cc1O)CCN[C@@]21CS[C@H]2c3c(OC(C)=O)c(C)c4c(c3C(COC1=O)N1C2C2c3c(cc(C)c(OC)c3O)CC([C@@H]1O)N2C)OCO4 (stereo partly specified)	< 1e-06 µM	> 0.525 µM	–	0.0161 µM	–	–	–	0.0277 µM	0.00682 µM	–	0.000783 µM	0.00149 µM	0.00242 µM	–	0.00305 µM	0.00337 µM	0.000788 µM
